Laboratory results published in ChEMBL document CHEMBL1201862, “PubChem BioAssay data set” (2004).
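Dose response: 5 concentrations. Exposure: 48 h. Format: 96-well plates. Endpoint: linear interpolation; highest concentration if not reached. Here, GI50 denotes the concentration required for 50% inhibition of growth.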 Active and inactive are the calls of the source. Rule as the data show it: active = GI50 up to about 1.1 µM and inactive = higher.

What was measured:
Experiment in all cases: NCI tumour cell line growth inhibition, 48 h
KM12 = test system: KM12
SK-MEL-5 = test system: SK-MEL-5
U-251 = test system: U-251
SNB-19 = test system: SNB-19
COLO 205 = test system: COLO 205
TK-10 = test system: TK-10
K562 = test system: K562
SK-MEL-28 = test system: SK-MEL-28
BT-549 = test system: BT-549
NCI-H23 = test system: NCI-H23
SR = test system: SR
ACHN = test system: ACHN
MDA-N = test system: MDA-N
HCT-116 = test system: HCT-116
Hs-578T = test system: Hs-578T
MCF7 = test system: MCF7
LOX IMVI = test system: LOX IMVI
OVCAR-3 = test system: OVCAR-3
MDA-MB-231 = test system: MDA-MB-231
Malme-3M = test system: Malme-3M

Measured: GI50

N#C/C(=C\NC(=S)c1ccncc1)c1nc2ccccc2s1
inactive: KM12 > 100 µM | SK-MEL-5 > 100 µM | U-251 98.4 µM | SNB-19 > 100 µM | COLO 205 > 100 µM | TK-10 65.2 µM | K562 > 100 µM | SK-MEL-28 > 100 µM | BT-549 > 100 µM | NCI-H23 51.2 µM | SR 74.6 µM | ACHN > 100 µM | MDA-N > 100 µM | HCT-116 > 100 µM | Hs-578T > 100 µM | MCF7 76.9 µM | LOX IMVI > 100 µM | OVCAR-3 43.4 µM | MDA-MB-231 39.6 µM

Cc1nc2c(=O)n(-c3ccccc3)c3ccccc3c2o1
inactive: KM12 > 100 µM | SK-MEL-5 > 100 µM | U-251 > 100 µM | SNB-19 > 100 µM | COLO 205 > 100 µM | TK-10 > 100 µM | K562 > 100 µM | SK-MEL-28 > 100 µM | BT-549 > 100 µM | NCI-H23 > 100 µM | ACHN > 100 µM | Malme-3M > 100 µM | MDA-N > 100 µM | HCT-116 > 100 µM | Hs-578T > 100 µM | MCF7 > 100 µM | LOX IMVI > 100 µM | OVCAR-3 > 100 µM | MDA-MB-231 > 100 µM

CS(=O)(=O)C[S+]([O-])C[S+]([O-])C[S+]([O-])CC(NC(=O)CCC(N)C(=O)O)C(=O)O (configuration not stated)
inactive: KM12 > 100 µM | SK-MEL-5 > 100 µM | U-251 > 100 µM | SNB-19 > 100 µM | COLO 205 > 100 µM | TK-10 > 100 µM | K562 > 100 µM | SK-MEL-28 > 100 µM | BT-549 > 100 µM | NCI-H23 > 100 µM | SR 16.3 µM | ACHN > 100 µM | MDA-N > 100 µM | HCT-116 > 100 µM | Hs-578T 51.8 µM | MCF7 > 100 µM | LOX IMVI > 100 µM | OVCAR-3 > 100 µM | MDA-MB-231 > 100 µM

COc1cccc(N2C(=O)CSC2c2cc(OC)c(OC)c(OC)c2)c1 (configuration not stated)
inactive: KM12 12.2 µM | SK-MEL-5 19.8 µM | U-251 34.8 µM | SNB-19 23.1 µM | COLO 205 23 µM | TK-10 > 100 µM | K562 25.9 µM | SK-MEL-28 62.2 µM | BT-549 22.1 µM | NCI-H23 29.2 µM | SR 5.75 µM | ACHN 57.7 µM | MDA-N 3.95 µM | HCT-116 31.8 µM | Hs-578T 48.2 µM | MCF7 19.4 µM | LOX IMVI 32.8 µM | OVCAR-3 20.7 µM | MDA-MB-231 69.7 µM

COc1ccc(-c2csc(-n3c(-c4ccccc4)nc4c(Br)cc(Br)cc4c3=O)n2)cc1
inactive: KM12 33.6 µM | SK-MEL-5 18.2 µM | U-251 28.7 µM | SNB-19 34 µM | COLO 205 37 µM | TK-10 51.5 µM | K562 20.8 µM | SK-MEL-28 23.2 µM | BT-549 17.8 µM | NCI-H23 14.4 µM | ACHN 25.1 µM | Malme-3M 26 µM | MDA-N 25.4 µM | HCT-116 22.5 µM | Hs-578T 41 µM | MCF7 35.1 µM | LOX IMVI 29.9 µM | OVCAR-3 25.2 µM | MDA-MB-231 28.5 µM

O=C(/C=C1\N=C(c2ccccc2)N(c2nc3ccc(Sc4ccccc4)cc3[nH]2)C1=O)/C=C/c1ccccc1
inactive: KM12 26.7 µM | SK-MEL-5 21.5 µM | U-251 27.7 µM | SNB-19 49 µM | COLO 205 16.5 µM | TK-10 29.2 µM | K562 26.2 µM | SK-MEL-28 46.5 µM | BT-549 31.1 µM | NCI-H23 31.6 µM | ACHN 52.7 µM | Malme-3M 34.7 µM | MDA-N 14.9 µM | HCT-116 32.8 µM | Hs-578T 26.4 µM | MCF7 30.1 µM | LOX IMVI 17.4 µM | OVCAR-3 29.6 µM | MDA-MB-231 22.4 µM

CC(=S)NC1C(Oc2ccc3c(C)cc(=O)oc3c2)OC(CO)C(O)C1O (configuration not stated)
inactive: KM12 > 100 µM | SK-MEL-5 > 100 µM | U-251 > 100 µM | SNB-19 > 100 µM | TK-10 > 100 µM | K562 > 100 µM | SK-MEL-28 > 100 µM | BT-549 > 100 µM | SR > 100 µM | ACHN > 100 µM | MDA-N > 100 µM | HCT-116 > 100 µM | Hs-578T > 100 µM | MCF7 > 100 µM | LOX IMVI > 100 µM | OVCAR-3 > 100 µM | MDA-MB-231 > 100 µM

COc1ccc(-c2oc3c(CC(=O)O)cccc3c(=O)c2OC)cc1
inactive: SK-MEL-5 > 100 µM | U-251 > 100 µM | COLO 205 > 100 µM | TK-10 > 100 µM | K562 > 100 µM | BT-549 > 100 µM | NCI-H23 > 100 µM | SR > 100 µM | ACHN > 100 µM | Malme-3M > 100 µM | MDA-N > 100 µM | HCT-116 > 100 µM | Hs-578T > 100 µM | MCF7 > 100 µM | OVCAR-3 > 100 µM | MDA-MB-231 > 100 µM
